Assay results as given in patent US20030161853A1, “Methylglycinediacetic acid and deribatives thereof useful as exfoliating agents” (L'OREAL, priority 2002, published 2003).

Test system: corneodesmosine
Assay: Exfoliation test by measurement of the degradation of corneodesmosines (immunoblot of stratum corneum acetone powders, antibody G36-19, 46 kDa band)
Assay type: biochemical, human
Conditions: for Percentage increase in the degradation of corneodesmosine: aqueous solution containing 2% of active ingredient, pH 8.0, incubation 8 h at 34° C., relative to control without active ingredient; for % increase in the degradation of corneodesmosine: comparative chelating agents tested in the same manner as Example 1 (2% active ingredient, pH 8.0, 8 h at 34° C.)
Source text: Exfoliation Test by Measurement of the Degradation of Corneodesmosines
This Example studies the capacity of trisodium methylglycine diacetate to promote exfoliation by the degradation of corneodesmosines.
Corneodesmosine is one of the majority markers of exfoliation in the corneodesmosome. It is studied by immunoblotting after separation by electrophoresis and transfer to a membrane. […] The murine monoclonal antibody G36-19 is specific for corneodesmosine; it belongs to a series of antibodies directed against epidermal differentiation antigens, produced after the immunization of a mouse with a human plantar horny layer homogenate, and then characterized (Serre G. et al, J. Invest. Dermatol. 1991, 97(6), 1061-72).
Varnish strippings are performed on the lower legs of volunteers (modification of the procedure of Lundström A. and Egelrud T., Acta Derm. Venereol. (stockh) 71, 471-474, 1991). The nylon-varnish leaves associated with the corneocytes are immersed in acetone (1 ml/cm^2) to detach the corneocytes. The mixture is filtered then rinsed three times with the same volume of acetone in order to remove all traces of varnish. Finally, the mixture is dried under vacuum:
acetone-containing powders of stratum corneum are thus obtained.
The acetone-containing powders are divided up into 1 mg aliquots. 100 μl of aqueous solutions containing 2% of active ingredient, adjusted to pH 8.0, are added. Controls without active ingredient are prepared under the same conditions. Two incubation times are studied: t=0 and t=8 h. In the latter case, incubation takes place at 34° C. with agitation.
After incubation, the mixtures are centrifuged for 10 min at 10,000 g. The supernatant is removed and replaced with 100 μl of Laemmli buffer (0.0625 M Tris/HCl pH 6.8, 2% SDS, 200 mM DTT, 10% glycerol) for extraction of the proteins. The mixture is boiled for 10 min at 100° C. and then ground in a Potter mill. The mixture is centrifuged for 10 min at 10,000 g and the supernatant is then collected. It contains the corneodesmosomal proteins.
The total proteins are assayed by Bradford's method (Biorad kit). This allows an adjustment of the samples to 0.6 mg/ml and a true comparison of the treatments. The samples together with a Rainbow low-molecular standard (Amersham Pharmacia Biotech), in a ratio of ⅓, are separated by electrophoresis on 12% acrylamide gel for ½ h at 100 V and then for 1 h at 200 V. After electrophoresis, the proteins are transferred to an Immobilon-P membrane (Millipore) for 3 h at 60 V. The membrane is then incubated for 2 times 15 min in TBS-TL buffer (Tris 25 mM, 0.15 M NaCl pH 7.2, 0.05% Tween 20, 0.5% skimmed milk powder) to block the non-specific sites. Incubation with the antibody G36-19, in a ratio of 1/12,500, is performed overnight at 4° C. After two rinses of 5 min in TBS-TL, the membrane is incubated with an IG(H+L) anti-mouse goat antibody/peroxidase conjugate (Biorad), in a ratio of 1/4000, for 1 h 30 min at room temperature. After several rinses of 5 min in TBS-TL and then TBS (without milk or Tween), the membrane is incubated for 1 min in 10 ml of ECL reagent (Amersham Pharmacia Biotech). The chemiluminescence of the corneodesmosine bands is measured with FluorS Multimager (Biorad). The 46 kDa band is quantified using the Quantity-one software (Biorad).
Glycine is used as a reference compound in this study, it having been shown in patent application EP-A2-0 852 949 (Shiseido) that glycine promotes the degradation of desmoglein (corneodesmosomal protein). […]

Row | SMILES | effect on the degradation of corneodesmosines (in words) (2% active ingredient, pH 8.0, 8 h at 34° C.) | Percentage increase in the degradation of corneodesmosine | % increase in the degradation of corneodesmosine
1 | CC(C(=O)[O-])N(CC(=O)[O-])CC(=O)[O-].[Na+].[Na+].[Na+] (centres unmarked) [Trisodium methylglycine diacetate, trisodium methylglycine diacetate] | promotes the degradation of corneodesmosines | 59% | 
2 | CCCCCCCCCCCC(=O)N(CCN(CC(=O)O)CC(=O)O)CC(=O)O [Lauroylethylenediaminetriacetic acid, lauroylethylenediaminetriacetic acid] |  |  | −80%
3 | NCC(=O)O [Glycine] |  | 30% | 
4 | N=C(CC(=O)[O-])C(=O)[O-].[Na+].[Na+] [Na iminosuccinate, sodium iminosuccinate] |  |  | −79%
